This is an account of results in US11446298B2, “Pyrimidine derivatives” (Idorsia Pharmaceuticals Ltd, priority 2017, dated 2022).

What all share (format): cell-based
One assay has as its target T1, PTGER2 (EP2) (Homo sapiens, UniProt P43116).
T1 construct: host or cells: HEK 293 (PathHunter, stably transfected)
The experiment in a line: hEP2 b-Arrestin Assay (PathHunter HEK 293 PTGER2 b-arrestin cells, PGE2 5 μM). Particulars: antagonistic activity, beta-arrestin assay, HEK 293 PTGER2 cells, PGE2 5 μM (EC80); read-out: hEP2 b-arr IC50. Summed up:
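PathHunter enzyme-fragment complementation in HEK 293 cells: compounds (10 μM-2 nM or 1 μM-0.2 nM) pre-incubated 15 min at 37 °C, then 5 μM PGE2 (EC80) for 120 min at 37 °C. Chemiluminescence read after 1 h detection; IC50 from duplicate dose-response fits, means of repeats.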

The target in a further assay is T2, EP4 (Homo sapiens, UniProt P35408).
T2 construct: BT549 breast cancer cells, express high endogenous EP4 levels and very low EP2 levels; host or cells: BT549 breast cancer cells
Put plainly: hEP4 cAMP Assay (BT549 breast cancer cells, HTRF cAMP, PGE2 6 nM). The settings on record: antagonistic activity, PGE2 6 nM (EC80). Summed up:
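Antagonism is measured as inhibition of PGE2 (6 nM final, EC80) cAMP accumulation in EP4-expressing BT549 breast cancer cells, after a 45 min room-temperature compound pre-incubation and 30 min agonist step, with 2 mM IBMX present. HTRF ratio gives cAMP relative to DMSO; IC50 fitted, means over repeat runs.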
(In general: TR-FRET usually uses a lanthanide donor and a delayed reading to cut background.)

A further assay has as its target T3, PTGER4 (EP4) (Homo sapiens, UniProt P35408).
T3 construct: host or cells: HEK 293 (PathHunter, stably transfected)
Put plainly: hEP4 b-Arrestin Assay (PathHunter HEK 293 PTGER4 b-arrestin cells, PGE2 20 nM). Particulars: antagonistic activity, beta-arrestin assay, HEK 293 PTGER4 cells, PGE2 20 nM (EC80); read-out: hEP4 b-arr IC50. The method in brief:
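PathHunter HEK 293 EP4 b-arrestin enzyme-complementation cells preincubated 15 min at 37° C with compound (10 μM-2 nM or 1 μM-0.2 nM), then stimulated 120 min with 20 nM PGE2 (EC80). Chemiluminescence read; IC50 from duplicate % activity vs DMSO, one-site fit, averaged over repeats.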

The next assay has as its target T4, EP2 (Homo sapiens, UniProt P43116).
T4 construct: SF295 glioblastoma cells express high endogenous EP2 and no EP4; host or cells: SF295 glioblastoma cells
The experiment in a line: hEP2 cAMP Assay (SF295 glioblastoma cells, HTRF cAMP, PGE2 75 nM). Particulars: antagonistic activity, PGE2 75 nM (EC80). Summed up: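 IC50 values derive from duplicate-point curves of percent cAMP relative to DMSO, read by HTRF (665/620 nm) against a cAMP calibrator. Compounds (30 μM to 0.01 nM ranges) were given 45 min at room temperature before 30 min with 75 nM PGE2, in EP2-only SF295 cells with 2 mM IBMX.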

Broadly, the IC50 is the midpoint of a concentration-inhibition curve.

T1 sequence (P43116 whole entry): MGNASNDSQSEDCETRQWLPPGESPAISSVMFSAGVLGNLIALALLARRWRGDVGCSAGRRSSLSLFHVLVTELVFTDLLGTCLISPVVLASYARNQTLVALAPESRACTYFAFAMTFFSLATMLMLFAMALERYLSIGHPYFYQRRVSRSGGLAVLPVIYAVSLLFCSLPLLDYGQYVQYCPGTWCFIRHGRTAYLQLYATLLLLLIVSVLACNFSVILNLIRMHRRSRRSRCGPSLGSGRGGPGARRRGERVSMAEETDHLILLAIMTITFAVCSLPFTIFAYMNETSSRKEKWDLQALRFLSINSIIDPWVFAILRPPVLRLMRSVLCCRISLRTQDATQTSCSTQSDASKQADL
T4 sequence (P43116 whole entry): as above
T2 sequence (P35408 whole entry): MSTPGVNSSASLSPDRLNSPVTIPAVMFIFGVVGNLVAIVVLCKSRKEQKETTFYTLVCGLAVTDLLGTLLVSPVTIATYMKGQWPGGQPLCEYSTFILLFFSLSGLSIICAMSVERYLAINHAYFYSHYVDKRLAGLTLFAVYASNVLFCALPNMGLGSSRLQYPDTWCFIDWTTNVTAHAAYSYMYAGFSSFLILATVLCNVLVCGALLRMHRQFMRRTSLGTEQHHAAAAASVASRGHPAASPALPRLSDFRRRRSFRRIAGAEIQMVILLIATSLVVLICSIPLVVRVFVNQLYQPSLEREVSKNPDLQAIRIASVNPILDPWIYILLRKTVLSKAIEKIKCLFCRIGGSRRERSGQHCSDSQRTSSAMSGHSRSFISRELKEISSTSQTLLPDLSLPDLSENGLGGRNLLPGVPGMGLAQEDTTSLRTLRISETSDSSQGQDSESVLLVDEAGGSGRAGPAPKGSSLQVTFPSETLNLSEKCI
T3 sequence (P35408 whole entry): as above

In the case of `COc1ccc2ccccc2c1CCNc1cc(-c2ccc(C(=O)O)c(OCCO)c2)ncn1` [Example 155, 2-(2-Hydroxy-ethoxy)-4-{6-[2-(2-methoxy-naphthalen-1-yl)-ethylamino]-pyrimidin-4-yl}-benzoic acid], the IC50 at PTGER2 (EP2) stood at 45 nM; against EP4, 296 nM; at PTGER4 (EP4), 2230 nM; on EP2, 16 nM.
For `COc1ccc2ccccc2c1CCNc1cc(-c2cc(OCCN(C)C)c(C(=O)O)s2)ncn1` [Example 157, 3-(2-Dimethylamino-ethoxy)-5-{6-[2-(2-methoxy-naphthalen-1-yl)-ethylamino]-pyrimidin-4-yl}-thiophene-2-carboxylic Acid], in that order: 43 nM, 1040 nM, 1910 nM and 143 nM.
With `CCOc1cc(-c2cc(NCCc3c(C#N)ccc4c(OC)ccc(F)c34)ncn2)sc1C(=O)O` [Example 158, 5-{6-[2-(2-Cyano-8-fluoro-5-methoxy-naphthalen-1-yl)-ethylamino]-pyrimidin-4-yl}-3-ethoxy-thiophene-2-carboxylic acid], the IC50 on PTGER2 (EP2) was determined as 126 nM; at EP4, 3 nM; on PTGER4 (EP4), 3 nM; on EP2 it was 286 nM.
On to `Cn1ccc2c(CCNc3cc(-c4ccc(C(=O)O)c(OC5CCC5)c4)ncn3)cccc21` [Example 159, 2-Cyclobutoxy-4-{6-[2-(1-methyl-1H-indol-4-yl)-ethylamino]-pyrimidin-4-yl}-benzoic acid], for which the IC50 amounted to 44 nM on PTGER2 (EP2), 1050 nM at EP4, 864 nM at PTGER4 (EP4) and 110 nM on EP2.
For `CCOc1cc(-c2cc(NCCc3c(OC)ccc4ccccc34)ncn2)ccc1CC(=O)O` [Example 160, (2-Ethoxy-4-{6-[2-(2-methoxy-naphthalen-1-yl)-ethylamino]-pyrimidin-4-yl}-phenyl)-acetic acid], in that order: 24 nM, 252 nM, 667 nM and 79 nM.
For `CCOc1cc(-c2cc(NCCc3cccc4c(F)cccc34)ncn2)ccc1CC(=O)O` [Example 163, (2-Ethoxy-4-{6-[2-(5-fluoro-naphthalen-1-yl)-ethylamino]-pyrimidin-4-yl}-phenyl)-acetic acid], in that order: 80 nM, 180 nM, 294 nM and 202 nM.
Consider `CCOc1cc(-c2cc(NCCc3cccc4c(C)cccc34)ncn2)ccc1CC(=O)O` [Example 164, (2-Ethoxy-4-{6-[2-(5-methyl-naphthalen-1-yl)-ethylamino]-pyrimidin-4-yl}-phenyl)-acetic acid], for which the IC50 at PTGER2 (EP2) turned out to be 44 nM; on EP4, 110 nM; on PTGER4 (EP4) it was 181 nM; at EP2, 130 nM.
The matching figures for `CSc1cc(-c2cc(NCCc3ccc(Br)c4ccccc34)ncn2)ccc1C(=O)O` [Example 171, 4-{6-[2-(4-Bromo-naphthalen-1-yl)-ethylamino]-pyrimidin-4-yl}-2-methylsulfanyl-benzoic acid]: 68 nM, 130 nM, 149 nM and 88 nM.
The matching figures for `CSc1cc(-c2cc(NCCc3cccc4c(C)cccc34)ncn2)ccc1C(=O)O` [Example 173, 4-{6-[2-(5-Methyl-naphthalen-1-yl)-ethylamino]-pyrimidin-4-yl}-2-methylsulfanyl-benzoic acid]: 10 nM, 140 nM, 175 nM and 15 nM.
As to `CCOc1cc(-c2cc(NCCc3c(OCC)ccc4ccccc34)ncn2)ccc1C(=O)O` [Example 179, 2-Ethoxy-4-{6-[2-(2-ethoxy-naphthalen-1-yl)-ethylamino]-pyrimidin-4-yl}-benzoic acid], the half-inhibitory concentration (IC50) on PTGER2 (EP2) stood at 4 nM; on EP4 it was 1500 nM; on PTGER4 (EP4), 934 nM; against EP2, 8 nM.
In the case of `CCOc1cc(-c2cc(NCCc3ccc(Br)c4ccccc34)ncn2)ccc1C(=O)O` [Example 182, 4-{6-[2-(4-Bromo-naphthalen-1-yl)-ethylamino]-pyrimidin-4-yl}-2-ethoxy-benzoic acid], the IC50 on PTGER2 (EP2) was 142 nM; at EP4, 182 nM; on PTGER4 (EP4), 193 nM; at EP2, 209 nM.
Take `CCOc1cc(-c2cc(NCCc3cccc4c(C)cccc34)ncn2)ccc1C(=O)O` [Example 184, 2-Ethoxy-4-{6-[2-(5-methyl-naphthalen-1-yl)-ethylamino]-pyrimidin-4-yl}-benzoic acid]: the IC50 came out at 27 nM at PTGER2 (EP2), 330 nM against EP4, 375 nM at PTGER4 (EP4) and 48 nM against EP2.
For `CCOc1cc(-c2cc(NCCc3cccc4ncccc34)ncn2)sc1-c1noc(=O)[nH]1` [Example 188, 3-{3-Ethoxy-5-[6-(2-quinolin-5-yl-ethylamino)-pyrimidin-4-yl]-thiophen-2-yl}-[1,2,4]oxadiazol-5(4H)-one], in that order: 59 nM, 22 nM, 282 nM and 324 nM.
For `CCc1nc(-c2cc(NCCc3c(OC)ccc4ccccc34)ncn2)sc1-c1noc(=O)[nH]1` [Example 190, 3-(4-Ethyl-2-{6-[2-(2-methoxy-naphthalen-1-yl)-ethylamino]-pyrimidin-4-yl}-thiazol-5-yl)-[1,2,4]oxadiazol-5(4H)-one], in that order: 13 nM, 1250 nM, 34 nM and 8 nM.
